The text below walks through data of patent US20220347139A1, “METHOD OF TREATMENT VIA INTRA-ARTICULAR APPLICATION OF POTASSIUM” (Rensselaer Polytechnic Institute, priority 2018, published 2022).

In test [1] the test system is Raw 264.7 murine macrophages. The test is described as follows: IFN-stimulated macrophages in PEGDA hydrogels, in vitro mimic of intra-articular injection. The format is cell-based. As for the experimental part: Referring now to FIG. 5A, an in vitro experiment was designed to mimic an intra-articular injection of potassium osmolytes consistent with the embodiments described above. Poly(ethylene glycol) diacrylate hydrogels encapsulated with proinflammatory interferon-gamma (IFN)-stimulated macrophages (M(IFN)s) were prepared. M(IFN)s were cultured for 5 days in the continued presence of IFN, with 80 mM K+ applied only during the first day and then removed. Other IA injection formulations—human mesenchymal stem cells (MSCs) and methylprednisolone acetate (MPA)—were also included to gain a sense of efficacy and benchmark against current OA treatments.
The PEGDA hydrogel (˜50 kPa stiffness) was provided at the bottom of the culture well to create a surface that more closely matches the stiffness of articular cartilage (aggregate modulus ˜500 kPa) than traditional plastic 2D surfaces (˜1×10^6 kPa). MSC behavior is known to respond to substrate stiffness. Assessments for treatment efficacy included cell lysate levels of several proinflammatory markers, anti-inflammatory markers, and the ratio between anti/proinflammatory profiles.
(§1) Raw 264.7 murine macrophages (a cell line) were thawed and expanded in regular growth medium: high-glucose Dulbecco's modified Eagle's medium (DMEM; Corning) supplemented with 10% fetal bovine serum (FBS; Hyclone, Atlanta Biologicals, Inc.). Primary human OACs (Cell Applications, Inc.) were expanded in chondrogenic growth media for four passages, transitioned into regular growth medium for 1 passage, and utilized at passage 5.
Aliquots ([…]; 1×10^6 cells per construct) of the cell/polymer suspension were dispensed into the wells of a 48-well plate (Corning) and cured by exposure to long-wave UV light (˜10 mW/cm^2) for 6 min. […]
Referring now to FIGS. 5B and 5C, relative protein production of proinflammatory and anti-inflammatory molecules and the ratio between anti/proinflammatory profiles in Raw 264.7 macrophages were determined after 5 days in culture. […]

In test [2] the test system is Primary human OACs. Kind of test: Inflammatory protein production in osteoarthritic chondrocytes after short-term K+ treatment. The format is cell-based.
Excerpt: as §1
Referring now to FIGS. 5B and 5C, relative protein production of proinflammatory and anti-inflammatory molecules and the ratio between anti/proinflammatory profiles in Raw 264.7 macrophages were determined after 5 days in culture. “*” denotes a significant difference relative to IFN controls. “#” denotes a significant difference relative to 24-h 80 mM K^+ gluconate. “+” denotes a significant difference relative to 24-h MSCs.

Entries after “also recorded” stand apart in the source; their conditions may differ.

Consider `O=C([O-])[C@H](O)[C@@H](O)[C@H](O)[C@H](O)CO.[K+]` [K+ gluconate, potassium gluconate], for which, in test [1] (80 mM K+ applied during the first day only, 5 days in culture in continued presence of IFN, relative to IFN controls), the “anti/proinflammatory cytokine ratio (relative protein production)” value is reported as “significantly enhanced”. Further, the macrophage polarization entry in test [1] (80 mM, M(IFN)s) is recorded as “toward an anti-inflammatory/proresolving phenotype”. Besides, in test [1] (comparison between 40 and 80-mM treatments), the “anti/proinflammatory profile, 40 mM versus 80 mM treatment” value is “not significantly different”. Further, in test [2], the IL-8 production entry is reported as “extended benefit” and the MCP-1 production entry is given as “extended benefit”. Further, the MMP-13 production entry in test [2] (listed as K^+) is recorded as “extended benefit; also recorded: reduced production”.
